33 compounds from patent publication US12441703B2, “Carboxamides as modulators of sodium channels” (VERTEX PHARMACEUTICALS INCORPORATED, priority 2019, dated 2025) can be followed below.

In one test the target is human NaV 1.8 (Homo sapiens, UniProt Q9Y5Y9). Description: E-VIPR assay for detecting and measuring NaV inhibition properties. The test is classed as cell-based. The note with it: E-VIPR assay conducted in the presence of human serum; HEK cells expressing truncated human NaV 1.8. The method, boiled down: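 HEK cells with truncated human NaV1.8 plus KIR2.1 BacMam, hexyl dye loaded 20 min, compound 30 min at room temperature, 11-point 3-fold series […], 0.625% DMSO, with or without human serum. E-VIPR biphasic stimulation at 10 Hz for 10 s; membrane-potential response read as normalized coumarin/oxonol ratio.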
Chain of human NaV 1.8 (Q9Y5Y9 whole entry, looked up, the tested form may be a part): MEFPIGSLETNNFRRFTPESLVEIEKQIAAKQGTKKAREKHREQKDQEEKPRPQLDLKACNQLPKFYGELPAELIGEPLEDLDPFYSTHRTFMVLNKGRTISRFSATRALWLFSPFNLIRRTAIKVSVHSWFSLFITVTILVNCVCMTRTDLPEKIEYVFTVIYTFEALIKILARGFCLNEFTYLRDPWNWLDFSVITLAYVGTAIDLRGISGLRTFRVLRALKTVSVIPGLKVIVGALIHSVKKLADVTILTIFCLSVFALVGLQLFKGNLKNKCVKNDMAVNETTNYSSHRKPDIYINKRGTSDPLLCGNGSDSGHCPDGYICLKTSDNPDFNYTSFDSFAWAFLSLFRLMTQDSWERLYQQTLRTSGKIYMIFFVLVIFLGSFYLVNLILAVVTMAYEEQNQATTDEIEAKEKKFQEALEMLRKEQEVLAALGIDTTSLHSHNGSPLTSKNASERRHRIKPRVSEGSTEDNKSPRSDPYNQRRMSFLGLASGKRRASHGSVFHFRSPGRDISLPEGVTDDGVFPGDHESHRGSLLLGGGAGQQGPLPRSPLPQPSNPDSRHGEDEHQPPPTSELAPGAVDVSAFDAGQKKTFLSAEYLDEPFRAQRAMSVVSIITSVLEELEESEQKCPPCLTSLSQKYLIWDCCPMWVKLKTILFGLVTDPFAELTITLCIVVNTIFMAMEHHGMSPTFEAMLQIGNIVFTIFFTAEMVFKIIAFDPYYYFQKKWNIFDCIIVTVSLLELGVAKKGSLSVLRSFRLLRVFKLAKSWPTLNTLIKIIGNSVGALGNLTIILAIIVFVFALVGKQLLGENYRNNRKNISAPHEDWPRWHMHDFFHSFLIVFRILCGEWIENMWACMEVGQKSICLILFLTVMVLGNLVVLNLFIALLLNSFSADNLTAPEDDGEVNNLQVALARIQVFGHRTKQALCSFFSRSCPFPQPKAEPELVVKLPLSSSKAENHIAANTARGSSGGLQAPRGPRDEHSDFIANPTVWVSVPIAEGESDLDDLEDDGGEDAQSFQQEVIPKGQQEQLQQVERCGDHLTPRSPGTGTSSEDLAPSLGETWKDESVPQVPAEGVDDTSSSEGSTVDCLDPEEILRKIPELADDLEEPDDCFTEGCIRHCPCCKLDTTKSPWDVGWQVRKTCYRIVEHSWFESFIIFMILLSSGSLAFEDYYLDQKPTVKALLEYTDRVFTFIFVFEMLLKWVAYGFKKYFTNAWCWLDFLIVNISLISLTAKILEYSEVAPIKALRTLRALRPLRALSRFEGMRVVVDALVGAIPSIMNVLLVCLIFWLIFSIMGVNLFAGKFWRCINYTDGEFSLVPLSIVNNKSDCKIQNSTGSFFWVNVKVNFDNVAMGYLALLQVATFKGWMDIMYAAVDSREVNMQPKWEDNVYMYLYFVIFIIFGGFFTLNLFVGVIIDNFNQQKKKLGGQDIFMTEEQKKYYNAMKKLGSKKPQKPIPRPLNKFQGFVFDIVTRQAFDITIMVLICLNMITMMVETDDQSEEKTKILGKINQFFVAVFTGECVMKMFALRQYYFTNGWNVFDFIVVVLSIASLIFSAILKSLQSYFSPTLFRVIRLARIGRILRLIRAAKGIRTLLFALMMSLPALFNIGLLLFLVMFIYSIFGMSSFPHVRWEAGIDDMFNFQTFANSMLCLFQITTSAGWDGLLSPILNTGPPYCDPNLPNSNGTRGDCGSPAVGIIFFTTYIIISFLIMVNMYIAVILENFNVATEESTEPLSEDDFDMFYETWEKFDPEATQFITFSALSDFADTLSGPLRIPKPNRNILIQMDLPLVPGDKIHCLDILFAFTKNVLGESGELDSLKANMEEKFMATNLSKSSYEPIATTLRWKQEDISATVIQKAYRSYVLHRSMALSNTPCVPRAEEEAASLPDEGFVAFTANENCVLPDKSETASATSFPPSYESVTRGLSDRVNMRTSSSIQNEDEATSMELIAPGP
On to `COc1cc(OC(F)(F)F)ccc1Oc1ccc(-c2ccccc2)c(F)c1C(=O)Nc1ccnc(C(N)=O)c1` [Compound 177, 4-[[2-fluoro-6-[2-methoxy-4-(trifluoromethoxy)phenoxy]-3-phenyl-benzoyl]amino]pyridine-2-carboxamide], for which the IC50 (commonly the concentration that inhibits the measured activity by half) amounted to 20 nM.

The test is the same for the next values; noted with them: E-VIPR assay conducted in the presence of human serum; HEK cells expressing truncated human NaV 1.8; read-out: IC50.
For the compound `Cc1c(C(F)(F)F)ccc(Oc2c(F)cc(F)cc2F)c1C(=O)Nc1ccnc(C(N)=O)c1` [Compound 143, 4-[[2-methyl-3-(trifluoromethyl)-6-(2,4,6-trifluorophenoxy)benzoyl]amino]pyridine-2-carboxamide], the IC50 is over 3000 nM.

Turning to `Cc1cc(Cl)cc(C)c1Oc1ccc(C(F)(F)F)c(C)c1C(=O)Nc1ccnc(C(N)=O)c1` [Compound 144, 4-[[6-(4-chloro-2,6-dimethyl-phenoxy)-2-methyl-3-(trifluoromethyl)benzoyl]amino]pyridine-2-carboxamide], the IC50 amounted to 765 nM.

As to `COc1cc(C)cc(OC)c1Oc1ccc(C(F)(F)F)c(C)c1C(=O)Nc1ccnc(C(N)=O)c1` [Compound 145, 4-[[6-(2,6-dimethoxy-4-methyl-phenoxy)-2-methyl-3-(trifluoromethyl)benzoyl]amino]pyridine-2-carboxamide], the IC50 is over 3000 nM.

Consider `Cc1c(C(F)(F)F)ccc(Oc2ccc(OC(F)(F)F)cc2Cl)c1C(=O)Nc1ccnc(C(N)=O)c1` [Compound 146, 4-[[6-[2-chloro-4-(trifluoromethoxy)phenoxy]-2-methyl-3-(trifluoromethyl)benzoyl]amino]pyridine-2-carboxamide], for which the IC50 was found to be 17 nM.

For the compound `COc1c(Oc2ccc(C(F)(F)F)c(C)c2C(=O)Nc2ccnc(C(N)=O)c2)ccc(OC(F)(F)F)c1F` [Compound 147, 4-[[6-[3-fluoro-2-methoxy-4-(trifluoromethoxy)phenoxy]-2-methyl-3-(trifluoromethyl)benzoyl]amino]pyridine-2-carboxamide], the IC50 came to 3 nM.

With `Cc1c(C(F)(F)F)ccc(Oc2ccc(OC(F)(F)F)cc2C2CC2)c1C(=O)Nc1ccnc(C(N)=O)c1` [Compound 148, 4-[[6-[2-cyclopropyl-4-(trifluoromethoxy)phenoxy]-2-methyl-3-(trifluoromethyl)benzoyl]amino]pyridine-2-carboxamide], the IC50 was 9 nM.

`Cc1c(Oc2ccc(C(F)(F)F)c(C)c2C(=O)Nc2ccnc(C(N)=O)c2)ccc(F)c1F` [Compound 149, 4-[[6-(3,4-difluoro-2-methyl-phenoxy)-2-methyl-3-(trifluoromethyl)benzoyl]amino]pyridine-2-carboxamide]: the concentration for half-maximal inhibition (IC50) was found to be 19 nM.

In the case of `COc1cc(OC(F)(F)F)ccc1Oc1ccc(C(F)(F)F)c(F)c1C(=O)Nc1cc[n+]([O-])c(C(N)=O)c1` [Compound 150, 4-[[2-fluoro-6-[2-methoxy-4-(trifluoromethoxy)phenoxy]-3-(trifluoromethyl)benzoyl]amino]-1-oxido-pyridin-1-ium-2-carboxamide], the IC50 was found to be 2 nM.

Take `COc1cc(OC(F)(F)F)ccc1Oc1ccc(C(F)(F)F)c(C)c1C(=O)Nc1ccnc(C(N)=O)c1` [Compound 151, 4-[[6-[2-methoxy-4-(trifluoromethoxy)phenoxy]-2-methyl-3-(trifluoromethyl)benzoyl]amino]pyridine-2-carboxamide]: the IC50 came out at 4 nM.

Take `COc1cc(OC(F)(F)F)ccc1Oc1ccc(C(F)(F)F)c(C)c1C(=O)Nc1ccc(C(N)=O)nc1` [Compound 152]: the IC50 is 12 nM.

Regarding `COc1cc(OC(F)(F)F)ccc1Oc1ccc(C(F)(F)F)c(C)c1C(=O)Nc1cc(C(N)=O)ncc1C` [Compound 153], the IC50 is 7 nM.

On to `COc1cc(OC(F)(F)F)ccc1Oc1cc(-c2ccoc2)ccc1C(=O)Nc1ccnc(C(N)=O)c1` [Compound 154, 4-[[4-(3-furyl)-2-[2-methoxy-4-(trifluoromethoxy)phenoxy]benzoyl]amino]pyridine-2-carboxamide], for which the IC50 was 988 nM.

For `COc1cc(OC(F)(F)F)ccc1Oc1cc(-c2ccc(Cl)cc2)ccc1C(=O)Nc1ccnc(C(N)=O)c1` [Compound 155, 4-[[4-(4-chlorophenyl)-2-[2-methoxy-4-(trifluoromethoxy)phenoxy]benzoyl]amino]pyridine-2-carboxamide], the IC50 turned out to be 505 nM.

Turning to `COc1cc(OC(F)(F)F)ccc1Oc1cc(-c2ccc(F)cc2)ccc1C(=O)Nc1ccnc(C(N)=O)c1` [Compound 156, 4-[[4-(4-fluorophenyl)-2-[2-methoxy-4-(trifluoromethoxy)phenoxy]benzoyl]amino]pyridine-2-carboxamide], the IC50 was 730 nM.

As for `COc1cc(OC(F)(F)F)ccc1Oc1cc(-c2ccc(C(F)(F)F)cc2)ccc1C(=O)Nc1ccnc(C(N)=O)c1` [Compound 157, 4-[[2-[2-methoxy-4-(trifluoromethoxy)phenoxy]-4-[4-(trifluoromethyl)phenyl]benzoyl]amino]pyridine-2-carboxamide], the IC50 was 408 nM.

`COc1cc(F)ccc1Oc1cc(C(F)(F)F)ccc1C(=O)Nc1ccnc(C(N)=O)c1` [Compound 159, 4-[[2-(4-fluoro-2-methoxy-phenoxy)-4-(trifluoromethyl)benzoyl]amino]pyridine-2-carboxamide]: the IC50 is over 3000 nM.

`CC(C)Oc1ccc(Oc2cc(C(F)(F)F)ccc2C(=O)Nc2ccnc(C(N)=O)c2)cc1F` [Compound 160, 4-[[2-(3-fluoro-4-isopropoxy-phenoxy)-4-(trifluoromethyl)benzoyl]amino]pyridine-2-carboxamide]: the IC50 was over 3000 nM.

On to `NC(=O)c1cc(NC(=O)c2ccc(C(F)(F)F)cc2Oc2ccc(F)cc2Cl)ccn1` [Compound 161, 4-[[2-(2-chloro-4-fluoro-phenoxy)-4-(trifluoromethyl)benzoyl]amino]pyridine-2-carboxamide], for which the IC50 is over 3000 nM.

For `NC(=O)c1cc(NC(=O)c2ccc(C(F)(F)F)cc2Oc2ccc(F)c(F)c2)ccn1` [Compound 163, 4-[[2-(3,4-difluorophenoxy)-4-(trifluoromethyl)benzoyl]amino]pyridine-2-carboxamide], the IC50 was over 3000 nM.

Take `CC(C)Oc1ccc(Oc2cc(C(F)(F)F)ccc2C(=O)Nc2ccnc(C(N)=O)c2)cc1` [Compound 164, 4-[[2-(4-isopropoxyphenoxy)-4-(trifluoromethyl)benzoyl]amino]pyridine-2-carboxamide]: the 50% inhibitory concentration (IC50) was over 3000 nM.

As to `NC(=O)c1cc(NC(=O)c2ccc(C(F)(F)F)cc2Oc2ccc(F)c3c2OCC3)ccn1` [Compound 165, 4-[[2-[(4-fluoro-2,3-dihydrobenzofuran-7-yl)oxy]-4-(trifluoromethyl)benzoyl]amino]pyridine-2-carboxamide], the IC50 was over 3000 nM.

`Cc1cc(Oc2cc(C(F)(F)F)ccc2C(=O)Nc2ccnc(C(N)=O)c2)ccc1F` [Compound 166, 4-[[2-(4-fluoro-3-methyl-phenoxy)-4-(trifluoromethyl)benzoyl]amino]pyridine-2-carboxamide]: the IC50 was over 3000 nM.

As to `COc1cc(Oc2cc(C(F)(F)F)ccc2C(=O)Nc2ccnc(C(N)=O)c2)ccc1F` [Compound 167, 4-[[2-(4-fluoro-3-methoxy-phenoxy)-4-(trifluoromethyl)benzoyl]amino]pyridine-2-carboxamide], the IC50 is over 3000 nM.

With `COc1cc(OC(F)(F)F)ccc1Oc1cc(-c2ccc(F)cc2)cc(F)c1C(=O)Nc1ccc(C(N)=O)nc1` [Compound 170, 5-[[2-fluoro-4-(4-fluorophenyl)-6-[2-methoxy-4-(trifluoromethoxy)phenoxy]benzoyl]amino]pyridine-2-carboxamide], the IC50 was 230 nM.

Consider `COc1cc(OC(F)(F)F)ccc1Oc1cc(-c2ccc(Cl)cc2)cc(F)c1C(=O)Nc1ccnc(C(N)=O)c1` [Compound 171, 4-[[4-(4-chlorophenyl)-2-fluoro-6-[2-methoxy-4-(trifluoromethoxy)phenoxy]benzoyl]amino]pyridine-2-carboxamide], for which the IC50 amounted to 9 nM.

Turning to `COc1cc(OC(F)(F)F)ccc1Oc1cc(-c2ccc(C(C)(C)C)cc2)cc(F)c1C(=O)Nc1ccnc(C(N)=O)c1` [Compound 172], the IC50 was 50 nM.

Regarding `[2H]C([2H])([2H])Oc1cc(OC(F)(F)F)ccc1Oc1cc(C(F)(F)F)cnc1C(=O)Nc1ccnc(C(N)=O)c1` [Compound 173, N-(2-carbamoyl-4-pyridyl)-3-[2-(trideuteriomethoxy)-4-(trifluoromethoxy)phenoxy]-5-(trifluoromethyl)pyridine-2-carboxamide], the IC50 was found to be 1300 nM.

For `[2H]C([2H])([2H])Oc1cc(OC(F)(F)F)ccc1Oc1cc(C(F)(F)F)cnc1C(=O)Nc1ccc(C(N)=O)nc1` [Compound 174, N-(6-carbamoyl-3-pyridyl)-3-[2-(trideuteriomethoxy)-4-(trifluoromethoxy)phenoxy]-5-(trifluoromethyl)pyridine-2-carboxamide], the IC50 was over 3000 nM.

In the case of `NC(=O)c1ccc(NC(=O)c2c(Oc3ccc(F)cc3Cl)ccc(C(F)(F)F)c2F)cn1` [Compound 176, 5-[[6-(2-chloro-4-fluoro-phenoxy)-2-fluoro-3-(trifluoromethyl)benzoyl]amino]pyridine-2-carboxamide], the IC50 was found to be 490 nM.

For `CCc1cc(C(F)(F)F)cc(Oc2ccc(OC(F)(F)F)cc2OC)c1C(=O)Nc1ccnc(C(N)=O)c1` [Compound 178, 4-[[2-ethyl-6-[2-methoxy-4-(trifluoromethoxy)phenoxy]-4-(trifluoromethyl)benzoyl]amino]pyridine-2-carboxamide], the IC50 amounted to 27 nM.

As for `COc1c(Oc2ccc(C(F)(F)F)c(C)c2C(=O)Nc2ccc(C(N)=O)nc2)ccc(F)c1F` [Compound 179, 5-[[6-(3,4-difluoro-2-methoxy-phenoxy)-2-methyl-3-(trifluoromethyl)benzoyl]amino]pyridine-2-carboxamide], the IC50 was 2000 nM.

With `COc1c(Oc2ccc(C(F)(F)F)c(C)c2C(=O)Nc2cc(C(N)=O)ncc2C)ccc(F)c1F` [Compound 180, 4-[[6-(3,4-difluoro-2-methoxy-phenoxy)-2-methyl-3-(trifluoromethyl)benzoyl]amino]-5-methyl-pyridine-2-carboxamide], the IC50 turned out to be 510 nM.
